Source: ChEMBL document CHEMBL1152512, “The search for potent, small molecule NNRTIs: A review” (Bioorg Med Chem, 2009)
Values belong to the compound of their own block, whether it stands above or below them.

Tests used:
[1] = test system: Human immunodeficiency virus 1; assay: Antiviral activity against Human immunodeficiency virus 1 3B; assay type: functional, organism-based
[2] = test system: Human immunodeficiency virus 1; assay: Antiviral activity against Human immunodeficiency virus 1 infected in human MT4 cells; assay type: functional, organism-based; settings: Human immunodeficiency virus 1, MT4
[3] = Selectivity index, ratio of human MT4 cytotoxicity to inhibition of HIV1 cytopathicity; assay type: toxicity; settings: MT4 cells, read-out: Selectivity Index
[4] = test system: Human immunodeficiency virus type 1 reverse transcriptase (Human immunodeficiency virus 1), Q72547 [K103N]; assay: Inhibition of HIV reverse transcriptase K103N mutant
[5] = test system: Human immunodeficiency virus; assay: Inhibition of wild-type HIV reverse transcriptase
[6] = target: T1, Human immunodeficiency virus type 1 reverse transcriptase (Human immunodeficiency virus 1, UniProt Q72547); assay: Inhibition of wild-type HIV1 reverse transcriptase
[7] = target: Human immunodeficiency virus type 1 reverse transcriptase (Human immunodeficiency virus 1, UniProt Q72547, K103N); assay: Inhibition of HIV1 reverse transcriptase K103N mutant
[8] = target: Human immunodeficiency virus type 1 reverse transcriptase (Human immunodeficiency virus 1, UniProt Q72547, Y181C); assay: Inhibition of HIV1 reverse transcriptase Y181C mutant
[9] = target: T1, Human immunodeficiency virus type 1 reverse transcriptase; assay: Inhibition of HIV1 reverse transcriptase

Compound: CC1=C(C(=O)Nc2ccc(Cl)c(C(=O)OC(C)C)c2)SCCO1
EC50 [1]: 15 nM

Compound: CCC1(c2cccc(OC)c2)Oc2ccccc2-n2cccc2C1=O (stereo not given)
INH [4]: 0.022 µM | INH [5]: 0.05 µM

Compound: Cc1cc(S(N)(=O)=O)ccc1NC(=O)COc1ccc(Cl)cc1C(=O)c1cc(F)cc(C(F)(F)F)c1
IC50 [6]: < 2 nM | IC50 [7]: < 10 nM | IC50 [8]: < 10 nM

Compound: C=CCN1Cc2cccc3[nH]c(=O)n(c23)CC1C (stereo not given)
EC50 [2]: 62000 nM

The next lines start with results.

EC50 [2]: 610 nM
Compound: COc1ccccc1NC(C(N)=O)c1c(Cl)cccc1Cl (stereo not given)
selectivity ratio [3]: 10000

EC50 [1]: 15 nM
Compound: CC(C)=CCOc1cc(NC(=S)c2ccoc2C)ccc1Cl [UC 781]

IC50 [9]: 21000 nM
Compound: CCN(CC)CCOc1ccc(NC(=O)COc2ccccc2C(=O)c2ccc(OC)cc2)cc1

EC50 [2]: 13 nM
Compound: CC(=O)c1ccc(C)cc1NC(C(N)=O)c1c(Cl)cccc1Cl (stereo not given) [LOVIRIDE]
selectivity ratio [3]: 10000

EC50 [1]: 15 nM
Compound: CC(C)=CCOc1cc(NC(=S)c2ccsc2C)ccc1Cl

EC50 [2]: 4.3 nM
Compound: CC(C)=CCN1Cc2c(Cl)ccc3[nH]c(=S)n(c23)C[C@@H]1C [TIVIRAPINE]
